Test [1] concerns the target T1, NS3-NS4 (Hepatitis C virus genotype 1a, UniProt P27958). Description: NS3-NS4 activity, IC50 (Example 37, Table 8). The format is biochemical.
Test [2] has as its target T1, NS3-NS4. Briefly: cell-based. The following applies: EC50, NS3-NS4 activity.

Bounds are passed on as bounds.

T1 sequence (P27958 1027-1657): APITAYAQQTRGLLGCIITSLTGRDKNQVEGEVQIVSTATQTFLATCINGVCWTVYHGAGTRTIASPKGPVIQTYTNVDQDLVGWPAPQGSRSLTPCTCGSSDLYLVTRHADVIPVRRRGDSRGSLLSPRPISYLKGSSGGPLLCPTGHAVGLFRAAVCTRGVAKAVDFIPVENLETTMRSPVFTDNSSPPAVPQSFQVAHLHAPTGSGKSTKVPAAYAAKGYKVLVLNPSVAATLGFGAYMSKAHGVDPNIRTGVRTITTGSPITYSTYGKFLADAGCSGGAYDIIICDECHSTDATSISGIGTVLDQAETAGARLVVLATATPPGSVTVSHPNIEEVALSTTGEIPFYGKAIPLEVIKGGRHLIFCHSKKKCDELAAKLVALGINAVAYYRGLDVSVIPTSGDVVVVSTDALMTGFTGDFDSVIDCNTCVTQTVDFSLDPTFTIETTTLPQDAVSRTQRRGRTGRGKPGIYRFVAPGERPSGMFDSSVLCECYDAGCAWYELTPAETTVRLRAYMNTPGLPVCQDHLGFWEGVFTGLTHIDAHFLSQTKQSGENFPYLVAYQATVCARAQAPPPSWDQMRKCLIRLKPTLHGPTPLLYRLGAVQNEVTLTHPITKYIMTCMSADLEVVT
T1 sequence (P27958 1658-1711): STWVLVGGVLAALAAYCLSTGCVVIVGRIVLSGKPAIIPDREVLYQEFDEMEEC

Usually IC50 stands for the concentration at which inhibition is half-maximal. Low values mean higher potency, high ones lower potency. The EC50 is the concentration that produces a half-maximal response. Read a high EC50 as weaker potency. For the compound `CC(C)(C)COC(=O)N[C@H]1CCCCC/C=C\[C@@H]2C[C@@]2(C(=O)NS(=O)(=O)c2ccc(Cl)cc2)NC(=O)[C@@H]2C[C@@H](OC(=O)N3Cc4cccc(F)c4C3)CN2C1=O` [Compound 340], the 50% inhibitory concentration (IC50) at NS3-NS4 [1] was below 100 nM. At NS3-NS4 [2], this compound had a 50% effective concentration (EC50) below 100 nM.
Regarding `CC(C)(C)OC(=O)N[C@H]1CCCCC/C=C\[C@@H]2C[C@@]2(C(=O)NS(=O)(=O)c2c(F)cccc2F)NC(=O)[C@@H]2C[C@@H](OC(=O)N3Cc4ccccc4C3)CN2C1=O` [Compound 364], at NS3-NS4 [1], the concentration for half-maximal inhibition (IC50) is below 100 nM. At NS3-NS4 [2], this compound had an EC50 of 100 to 1000 nM.
In the same order, the values of `CC(C)Oc1ccc(S(=O)(=O)NC(=O)[C@@]23C[C@H]2/C=C\CCCCC[C@H](NC(=O)OC(C)(C)C)C(=O)N2C[C@H](OC(=O)N4Cc5cccc(F)c5C4)C[C@H]2C(=O)N3)cc1` [Compound 356] are below 100 nM and below 100 nM.
In the same order, the values of `CC(C)(C)COC(=O)N[C@H]1CCCCC/C=C\[C@@H]2C[C@@]2(C(=O)NS(=O)(=O)c2cc(Cl)sc2Cl)NC(=O)[C@@H]2C[C@@H](OC(=O)N3Cc4cccc(F)c4C3)CN2C1=O` [Compound 343] are below 100 nM and below 100 nM.
On NS3-NS4 [1], `CN(C(=O)N[C@H]1CCCCC/C=C\[C@@H]2C[C@@]2(C(=O)NS(=O)(=O)C2(C)CC2)NC(=O)[C@@H]2C[C@@H](OC(=O)N3Cc4cccc(Cl)c4C3)CN2C1=O)C(C)(C)C` [Compound 441] displayed an IC50 below 100 nM. Besides, the concentration for a half-maximal effect (EC50) at NS3-NS4 [2] was below 100 nM.
At NS3-NS4 [1], `CC(C)CN(C)C(=O)N[C@H]1CCCCC/C=C\[C@@H]2C[C@@]2(C(=O)NS(=O)(=O)C2CC2)NC(=O)[C@@H]2C[C@@H](OC(=O)N3Cc4cccc(F)c4C3)CN2C1=O` [Compound 437] gave an IC50 below 100 nM. In addition, the EC50 at NS3-NS4 [2] was below 100 nM.
Compound `CC(C)(C)OC(=O)N[C@H]1CCCCC/C=C\[C@@H]2C[C@@]2(C(=O)NS(=O)(=O)c2ccc(F)cc2)NC(=O)[C@@H]2C[C@@H](OC(=O)N3Cc4cccc(F)c4C3)CN2C1=O` [Compound 351] displayed an IC50 on NS3-NS4 [1] below 100 nM. Besides, on NS3-NS4 [2], the EC50 is below 100 nM.
`CC(C)(C)OC(=O)N[C@H]1CCCCC/C=C\[C@@H]2C[C@@]2(C(=O)NS(=O)(=O)Cc2c(Cl)cccc2Cl)NC(=O)[C@@H]2C[C@@H](OC(=O)N3Cc4cccc(F)c4C3)CN2C1=O` [Compound 527]: the IC50 at NS3-NS4 [1] was below 100 nM. The same compound returned an EC50 at NS3-NS4 [2] below 100 nM.
For `CC(C)(C)OC(=O)N[C@H]1CCCCC/C=C\[C@@H]2C[C@@]2(C(=O)NS(=O)(=O)c2ccc(F)c(F)c2)NC(=O)[C@@H]2C[C@@H](OC(=O)N3Cc4cccc(F)c4C3)CN2C1=O` [Compound 315], on NS3-NS4 [1], the 50% inhibitory concentration (IC50) was below 100 nM. On NS3-NS4 [2], this compound yielded a 50% effective concentration (EC50) below 100 nM.
The compound `CC(C)(C)OC(=O)N[C@H]1CCCCCCC[C@@H]2C[C@@]2(C(=O)NS(=O)(=O)c2cc(Cl)sc2Cl)NC(=O)[C@@H]2C[C@@H](OC(=O)N3Cc4cccc(F)c4C3)CN2C1=O` [Compound 606] gave a half-maximal inhibitory concentration (IC50) at NS3-NS4 [1] below 100 nM. At NS3-NS4 [2], this compound registered a concentration giving a half-maximal response (EC50) below 100 nM.
The compound `CC(C)(C)OC(=O)N[C@H]1CCCCCCC[C@@H]2C[C@@]2(C(=O)NOc2ccc(F)cc2)NC(=O)[C@@H]2C[C@@H](OC(=O)N3Cc4cccc(F)c4C3)CN2C1=O` [Compound 811] had a 50% inhibitory concentration (IC50) against NS3-NS4 [1] below 100 nM. Also, the half-maximal effective concentration (EC50) on NS3-NS4 [2] was in the range of 1000 to 10000 nM.
In the same order, the values of `CC(C)(C)OC(=O)N[C@H]1CCOCC/C=C\[C@@H]2C[C@@]2(C(=O)NS(=O)(=O)c2ccc(Cl)cc2)NC(=O)[C@@H]2C[C@@H](OC(=O)N3Cc4cccc(Cl)c4C3)CN2C1=O` [Compound 324, (2R,6S,13aS,14aR,16aSZ)-6-(tert-butoxycarbonylamino)-14a-(4-chlorophenylsulfonylcarbamoyl)-5,16-dioxo-2,3,5,6,7,8,10,11,13a,14,14a,15,16,16a-tetradecahydro-1H-cyclopropa[j]pyrrolo[1,2-f][1,6,9]oxadiazacyclopentadecin-2-yl 4-chloroisoindoline-2-carboxylate] are below 100 nM and below 100 nM.
In the same order, the values of `O=C(N[C@H]1CCCCC/C=C\[C@@H]2C[C@@]2(C(=O)NS(=O)(=O)C2CC2)NC(=O)[C@@H]2C[C@@H](OC(=O)N3Cc4cccc(F)c4C3)CN2C1=O)OC1(C2CC2)CC1` [Compound 446] are below 100 nM and below 100 nM.
On to `CN(C(=O)N[C@H]1CCCCC/C=C\[C@@H]2C[C@@]2(C(=O)NS(=O)(=O)C2CC2)NC(=O)[C@@H]2C[C@@H](OC(=O)N3Cc4cccc(F)c4C3)CN2C1=O)C(C)(C)C` [Compound 407, (2R,6S,13aS,14aR,16aS,Z)-6-(3-tert-butyl-3-methylureido)-14a-(cyclopropylsulfonylcarbamoyl)-5,16-dioxo-1,2,3,5,6,7,8,9,10,11,13a,14,14a,15,16,16a-hexadecahydrocyclopropa[e]pyrrolo[1,2-a][1,4]diazacyclopentadecin-2-yl 4-fluoroisoindoline-2-carboxylate], for which, at NS3-NS4 [1], the IC50 was below 100 nM. Further, the concentration for a half-maximal effect (EC50) on NS3-NS4 [2] was below 100 nM.
As to `O=C1N[C@]2(C(=O)NS(=O)(=O)C3CC3)C[C@H]2/C=C\CCCCC[C@H](Nc2nc(-c3ccc(Br)cc3)cs2)C(=O)N2C[C@H](OC(=O)N3Cc4cccc(F)c4C3)C[C@@H]12` [Compound 220], on NS3-NS4 [1], the IC50 is below 100 nM. For the same compound, the concentration giving a half-maximal response (EC50) at NS3-NS4 [2] is below 100 nM.
With `CCc1ccc(S(=O)(=O)NC(=O)[C@@]23C[C@H]2/C=C\CCCCC[C@H](NC(=O)OC(C)(C)C)C(=O)N2C[C@H](OC(=O)N4Cc5cccc(F)c5C4)C[C@H]2C(=O)N3)cc1` [Compound 320], the 50% inhibitory concentration (IC50) against NS3-NS4 [1] was below 100 nM. The EC50 on NS3-NS4 [2] was below 100 nM.
`CC(C)COC(=O)N[C@H]1CCCCC/C=C\[C@@H]2C[C@@]2(C(=O)NS(=O)(=O)c2cc(Cl)sc2Cl)NC(=O)[C@@H]2C[C@@H](OC(=O)N3Cc4cccc(F)c4C3)CN2C1=O` [Compound 342]: at NS3-NS4 [1], the half-maximal inhibitory concentration (IC50) was below 100 nM. On NS3-NS4 [2], this compound had a concentration for a half-maximal effect (EC50) below 100 nM.
In turn, `O=C(N[C@H]1CCCCC/C=C\[C@@H]2C[C@@]2(C(=O)NS(=O)(=O)C2CC2)NC(=O)[C@@H]2C[C@@H](OC(=O)N3Cc4cccc(F)c4C3)CN2C1=O)OCC1CCC1` [Compound 430] gave an IC50 against NS3-NS4 [1] below 100 nM. In addition, the EC50 on NS3-NS4 [2] is below 100 nM.
On to `O=C1N[C@]2(C(=O)NS(=O)(=O)C3CC3)C[C@H]2/C=C\CCCCC[C@H](Nc2nc(-c3ccccn3)cs2)C(=O)N2C[C@H](OC(=O)N3Cc4cccc(F)c4C3)C[C@@H]12` [Compound 212], for which the IC50 against NS3-NS4 [1] is below 100 nM. The compound further showed a concentration giving a half-maximal response (EC50) at NS3-NS4 [2] below 100 nM.
As for `O=C(N[C@H]1CCCCC/C=C\[C@@H]2C[C@@]2(C(=O)NS(=O)(=O)C2CC2)NC(=O)[C@@H]2C[C@@H](OC(=O)N3Cc4cccc(Cl)c4C3)CN2C1=O)O[C@@H]1CCOC1` [Compound 402, (2R,6S,13aS,14aR,16aS,Z)-14a-(cyclopropylsulfonylcarbamoyl)5,16-dioxo-6-(((R)-tetrahydrofuran-3-yloxy)carbonylamino)-1,2,3,5,6,7,8,9,10,11,13a,14,14a,15,16,16a-hexadecahydrocyclopropa[e]pyrrolo[1,2-a][1,4]diazacyclopentadecin-2-yl 4-chloroisoindoline-2-carboxylate], the IC50 against NS3-NS4 [1] is below 100 nM. Besides, the EC50 at NS3-NS4 [2] is below 100 nM.
Turning to `O=C1N[C@]2(C(=O)NS(=O)(=O)C3CC3)C[C@H]2/C=C\CCC(F)(F)CC[C@H](NC(=O)C2(C(F)(F)F)CC2)C(=O)N2C[C@H](OC(=O)N3Cc4ccccc4C3)C[C@@H]12` [Compound 409], the half-inhibitory concentration (IC50) against NS3-NS4 [1] was below 100 nM. Further, at NS3-NS4 [2], the EC50 is below 100 nM.
Take `Cc1cc(S(=O)(=O)NC(=O)[C@@]23C[C@H]2/C=C\CCCCC[C@H](NC(=O)OC(C)(C)C)C(=O)N2C[C@H](OC(=O)N4Cc5cccc(F)c5C4)C[C@H]2C(=O)N3)c(C)s1` [Compound 302, (2R,6S,13aS,14aR,16aS,Z)-6-(tert-butoxycarbonylamino)-14a-(2,5-dimethylthiophen-3-ylsulfonylcarbamoyl)-5,16-dioxo-1,2,3,5,6,7,8,9,10,11,13a,14,14a,15,16,16a-hexadecahydrocyclopropa[e]pyrrolo[1,2-a][1,4]diazacyclopentadecin-2-yl 4-fluoroisoindoline-2-carboxylate]: on NS3-NS4 [1], the IC50 was below 100 nM. This compound also gave an EC50 on NS3-NS4 [2] below 100 nM.
Turning to `O=C1N[C@]2(C(=O)NS(=O)(=O)C3CC3)C[C@H]2/C=C\CCCCC[C@H](NC(=O)N2CCCCC2)C(=O)N2C[C@H](OC(=O)N3Cc4cccc(F)c4C3)C[C@@H]12` [Compound 415], on NS3-NS4 [1], the IC50 is below 100 nM. At NS3-NS4 [2], the EC50 was below 100 nM.
`CC(C)C1(S(=O)(=O)NC(=O)[C@@]23C[C@H]2CCCCCCC[C@H](NC(=O)OC(C)(C)C)C(=O)N2C[C@H](OC(=O)N4Cc5cccc(F)c5C4)C[C@H]2C(=O)N3)CC1` [Compound 653] yielded an IC50 at NS3-NS4 [1] below 100 nM. On NS3-NS4 [2], this compound came in with a 50% effective concentration (EC50) below 100 nM.
The compound `CC(C)(C)OC(=O)N[C@H]1CCCCC/C=C\[C@@H]2C[C@@]2(C(=O)NS(=O)(=O)Cc2cccc(Cl)c2)NC(=O)[C@@H]2C[C@@H](OC(=O)N3Cc4cccc(F)c4C3)CN2C1=O` [Compound 511] came in with an IC50 at NS3-NS4 [1] below 100 nM. On NS3-NS4 [2], this compound registered a concentration for a half-maximal effect (EC50) below 100 nM.
At NS3-NS4 [1], `Cc1cc(S(=O)(=O)NC(=O)[C@@]23C[C@H]2/C=C\CCCCC[C@H](NC(=O)OC(C)(C)C)C(=O)N2C[C@H](OC(=O)N4Cc5cccc(F)c5C4)C[C@H]2C(=O)N3)oc1C` [Compound 534] registered an IC50 below 100 nM. In addition, on NS3-NS4 [2], the EC50 was 100 to 1000 nM.
Regarding `CC(C)(C)OC(=O)N[C@H]1CCCCCCC[C@@H]2C[C@@]2(C(=O)NOc2ccc(Cl)cc2)NC(=O)[C@@H]2C[C@@H](OC(=O)N3Cc4cccc(F)c4C3)CN2C1=O` [Compound 809], at NS3-NS4 [1], the IC50 is below 100 nM. Also, the 50% effective concentration (EC50) at NS3-NS4 [2] was 1000 to 10000 nM.
In the same order, the values of `CC(C)(C)OC(=O)N[C@H]1CCCCC[C@@H]2C[C@@H]2[C@@H]2C[C@@]2(C(=O)NS(=O)(=O)C2(C)CC2)NC(=O)[C@@H]2C[C@@H](OC(=O)N3Cc4cccc(F)c4C3)CN2C1=O` [Compound 901] are below 100 nM and below 100 nM.
In the same order, the values of `CC(C)(C)OC(=O)N[C@H]1CCCCCCC[C@@H]2C[C@@]2(C(=O)NS(=O)(=O)c2ccc(Cl)nc2Cl)NC(=O)[C@@H]2C[C@@H](OC(=O)N3Cc4cccc(F)c4C3)CN2C1=O` [Compound 637] are below 100 nM and 100 to 1000 nM.
The matching figures for `CC(C)(C)OC(=O)N[C@H]1CCCCC/C=C\[C@@H]2C[C@@]2(C(=O)NS(=O)(=O)c2cccc(Cl)c2)NC(=O)[C@@H]2C[C@@H](OC(=O)N3Cc4cccc(F)c4C3)CN2C1=O` [Compound 353]: below 100 nM and below 100 nM.
